From EP4745137A1 (Gluetacs Therapeutics (Shanghai) Co., Ltd., priority 2023, dated 2025)

Key:
WEE1 = molecular target: T1, WEE1 (Homo sapiens, UniProt P30291+Q96SW2); assay: Western-blot assay of substrate protein degradation in hPBMCs, WEE1; assay type: cell-based; details: 24 hours of compound treatment, compounds tested at 50 nM and 500 nM (concentration of the table not stated)
T1 construct: endogenous in cells; host or cells: hPBMCs (Milecell Biotechnologies)

IKZF1 = molecular target: T2, IKZF1 (Homo sapiens, UniProt Q13422+Q96SW2); assay: Western-blot assay of substrate protein degradation in hPBMCs, IKZF1; assay type: cell-based; details: 24 hours of compound treatment, compounds tested at 50 nM and 500 nM (concentration of the table not stated)
T2 construct: endogenous in cells; host or cells: hPBMCs (Milecell Biotechnologies)

IKZF2 = molecular target: T3, IKZF2 (Homo sapiens, UniProt Q96SW2+Q9UKS7); assay: Western-blot assay of substrate protein degradation in hPBMCs, IKZF2; assay type: cell-based; details: 24 hours of compound treatment, compounds tested at 50 nM and 500 nM (concentration of the table not stated)
T3 construct: endogenous in cells; host or cells: hPBMCs (Milecell Biotechnologies)

IKZF3 = molecular target: T4, IKZF3 (Homo sapiens, UniProt Q96SW2+Q9UKT9); assay: Western-blot assay of substrate protein degradation in hPBMCs, IKZF3; assay type: cell-based; details: 24 hours of compound treatment, compounds tested at 50 nM and 500 nM (concentration of the table not stated)
T4 construct: endogenous in cells; host or cells: hPBMCs (Milecell Biotechnologies)

CK1α = molecular target: T5, CK1α (Homo sapiens, UniProt P48729+Q96SW2); assay: Western-blot assay of substrate protein degradation in hPBMCs, CK1α; assay type: cell-based; details: 24 hours of compound treatment, compounds tested at 50 nM and 500 nM (concentration of the table not stated)
T5 construct: endogenous in cells; host or cells: hPBMCs (Milecell Biotechnologies)

GSPT1 = molecular target: T6, GSPT1 (Homo sapiens, UniProt P15170+Q96SW2); assay: Western-blot assay of substrate protein degradation in hPBMCs, GSPT1; assay type: cell-based; details: 24 hours of compound treatment, compounds tested at 50 nM and 500 nM (concentration of the table not stated)
T6 construct: endogenous in cells; host or cells: hPBMCs (Milecell Biotechnologies)

[1] = molecular target: T7, human Cereblon WT GST-tagged protein (Homo sapiens, UniProt Q96SW2); assay: CRBN-binding affinity by HTRF (CEREBLON BINDING kit); details: HTRF inhibitory activity, CEREBLON BINDING kit; read-out: HTRF IC50
T7 construct: purchased CISBIO 64BDCRBNPEH

MM.1S = assay: Tumor cell proliferation inhibition (CellTiter-Meiluncell Luminescent Cell Viability Assay), MM.1S; details: Homo sapiens, MM1.S, read-out: inhibitory activity (IC50, nM) against tumor cells proliferation, MM.1S
Description: The tumor cells used herein were cultured in a cell culture medium listed in table 2 at 37°C in an incubator with 5% CO2. Prior to experimentation, all cell lines used were correctly identified by STR profiling, and tested negative for mycoplasma contamination using a mycoplasma detection kit through routine screenings.
On the following day, the test compounds of the present disclosure were subjected to serial dilution. […] Subsequently, 0.5 µL of the test compound dilution was transferred into the 96-well plate containing the cells, with each well containing 100 µL of cell culture medium. […] Into the 96-well plate, the diluted test compounds and corresponding detection reagents were added, resulting in final test compound concentrations of 500 nM and 10 nM, respectively.
After the cells were treated with the compounds of the present disclosure for a specified period (the treatment durations were shown in Table 3), the cell viability assay reagent was added to the culture medium according to the kit's instructions to determine cell viability. […] All controls were treated using the same procedure as the compounds of the present disclosure. The growth inhibition curves for the compounds of the present disclosure were plotted using Prism GraphPad software, and the IC50 values were calculated therefrom.

T1 sequence (P30291 whole entry): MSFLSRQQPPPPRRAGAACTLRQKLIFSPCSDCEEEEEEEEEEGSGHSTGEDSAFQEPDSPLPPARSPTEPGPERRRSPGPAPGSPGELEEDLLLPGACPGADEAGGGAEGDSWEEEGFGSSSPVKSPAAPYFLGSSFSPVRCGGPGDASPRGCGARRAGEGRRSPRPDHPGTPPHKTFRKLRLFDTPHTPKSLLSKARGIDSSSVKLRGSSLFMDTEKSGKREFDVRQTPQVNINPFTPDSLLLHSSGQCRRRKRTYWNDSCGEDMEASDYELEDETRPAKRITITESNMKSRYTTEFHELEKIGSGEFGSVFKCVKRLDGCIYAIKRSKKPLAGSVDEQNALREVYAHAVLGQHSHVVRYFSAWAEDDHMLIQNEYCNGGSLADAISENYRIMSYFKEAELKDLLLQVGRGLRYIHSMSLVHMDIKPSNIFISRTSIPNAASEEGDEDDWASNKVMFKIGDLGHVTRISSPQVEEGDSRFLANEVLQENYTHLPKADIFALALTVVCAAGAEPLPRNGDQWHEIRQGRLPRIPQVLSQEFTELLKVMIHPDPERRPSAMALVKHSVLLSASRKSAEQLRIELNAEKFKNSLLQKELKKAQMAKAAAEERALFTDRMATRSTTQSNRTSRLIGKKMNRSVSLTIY
T1 sequence (Q96SW2 whole entry): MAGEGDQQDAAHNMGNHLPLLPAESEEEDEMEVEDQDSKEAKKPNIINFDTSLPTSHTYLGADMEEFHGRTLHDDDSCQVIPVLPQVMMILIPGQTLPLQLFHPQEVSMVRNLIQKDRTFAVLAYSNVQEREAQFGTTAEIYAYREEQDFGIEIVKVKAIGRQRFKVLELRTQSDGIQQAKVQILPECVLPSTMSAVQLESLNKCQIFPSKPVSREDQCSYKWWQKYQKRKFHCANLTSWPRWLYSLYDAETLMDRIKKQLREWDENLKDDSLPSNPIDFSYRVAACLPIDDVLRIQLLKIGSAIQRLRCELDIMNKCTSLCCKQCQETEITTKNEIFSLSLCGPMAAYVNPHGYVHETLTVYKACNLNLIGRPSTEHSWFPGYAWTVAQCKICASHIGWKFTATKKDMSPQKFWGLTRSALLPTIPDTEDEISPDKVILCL
T1 sequence (Q16531 whole entry partner): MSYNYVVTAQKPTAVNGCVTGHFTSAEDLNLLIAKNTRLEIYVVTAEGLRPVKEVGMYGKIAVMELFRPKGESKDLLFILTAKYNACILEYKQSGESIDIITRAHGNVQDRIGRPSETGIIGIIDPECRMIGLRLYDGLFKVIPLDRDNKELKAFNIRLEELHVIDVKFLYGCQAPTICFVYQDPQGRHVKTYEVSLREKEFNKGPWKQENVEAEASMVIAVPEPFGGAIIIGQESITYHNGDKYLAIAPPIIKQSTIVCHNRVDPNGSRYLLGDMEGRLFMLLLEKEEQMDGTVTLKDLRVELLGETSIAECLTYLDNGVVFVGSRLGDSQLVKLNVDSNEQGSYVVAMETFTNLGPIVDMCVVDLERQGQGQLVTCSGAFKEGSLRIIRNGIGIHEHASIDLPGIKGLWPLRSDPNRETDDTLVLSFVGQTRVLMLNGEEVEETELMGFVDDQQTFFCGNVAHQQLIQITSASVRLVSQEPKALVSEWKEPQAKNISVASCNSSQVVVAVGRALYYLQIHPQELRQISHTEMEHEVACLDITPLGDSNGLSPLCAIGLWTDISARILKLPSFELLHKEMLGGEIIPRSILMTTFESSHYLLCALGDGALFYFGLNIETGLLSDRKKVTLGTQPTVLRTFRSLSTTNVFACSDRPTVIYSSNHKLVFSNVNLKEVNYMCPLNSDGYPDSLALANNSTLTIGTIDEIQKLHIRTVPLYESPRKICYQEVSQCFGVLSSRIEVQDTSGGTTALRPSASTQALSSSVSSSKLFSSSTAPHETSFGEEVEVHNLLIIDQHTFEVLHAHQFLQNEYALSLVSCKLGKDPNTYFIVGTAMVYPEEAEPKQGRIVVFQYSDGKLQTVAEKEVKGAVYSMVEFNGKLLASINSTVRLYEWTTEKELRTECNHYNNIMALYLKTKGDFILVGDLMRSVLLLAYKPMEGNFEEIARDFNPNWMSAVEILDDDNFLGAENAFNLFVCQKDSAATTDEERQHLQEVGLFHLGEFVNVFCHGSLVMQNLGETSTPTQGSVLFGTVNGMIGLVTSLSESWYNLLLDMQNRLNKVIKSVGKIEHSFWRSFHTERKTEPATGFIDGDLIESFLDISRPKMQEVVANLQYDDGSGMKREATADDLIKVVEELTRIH
T5 sequence (P48729 whole entry): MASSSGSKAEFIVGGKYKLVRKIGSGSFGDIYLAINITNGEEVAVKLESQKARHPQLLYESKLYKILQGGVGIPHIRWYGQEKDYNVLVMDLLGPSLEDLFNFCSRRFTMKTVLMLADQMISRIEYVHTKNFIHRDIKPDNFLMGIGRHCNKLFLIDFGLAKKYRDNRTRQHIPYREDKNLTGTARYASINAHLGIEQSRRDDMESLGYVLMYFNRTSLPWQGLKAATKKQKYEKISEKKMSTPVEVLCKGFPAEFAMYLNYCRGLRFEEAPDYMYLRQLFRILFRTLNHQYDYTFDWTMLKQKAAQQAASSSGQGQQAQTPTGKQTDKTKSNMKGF
T5 sequence (Q96SW2 whole entry): as the sequence (Q96SW2 whole entry) above
T5 sequence (Q16531 whole entry partner): as the sequence (Q16531 whole entry partner) above
T6 sequence (P15170 whole entry): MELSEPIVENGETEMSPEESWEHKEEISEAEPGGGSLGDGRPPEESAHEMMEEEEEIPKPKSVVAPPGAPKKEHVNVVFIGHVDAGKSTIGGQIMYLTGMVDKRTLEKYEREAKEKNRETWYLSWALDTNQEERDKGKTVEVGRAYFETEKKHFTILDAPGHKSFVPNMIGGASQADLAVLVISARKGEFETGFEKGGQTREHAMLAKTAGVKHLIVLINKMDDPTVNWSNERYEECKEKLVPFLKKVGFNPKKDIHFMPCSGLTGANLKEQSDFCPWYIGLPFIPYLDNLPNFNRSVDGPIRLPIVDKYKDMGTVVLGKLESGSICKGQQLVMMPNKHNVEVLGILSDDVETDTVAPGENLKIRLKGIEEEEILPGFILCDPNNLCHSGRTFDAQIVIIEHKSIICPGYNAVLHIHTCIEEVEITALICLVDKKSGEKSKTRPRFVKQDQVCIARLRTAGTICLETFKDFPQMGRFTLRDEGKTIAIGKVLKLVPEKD
T6 sequence (Q96SW2 whole entry): as the sequence (Q96SW2 whole entry) above
T6 sequence (Q16531 whole entry partner): as the sequence (Q16531 whole entry partner) above
T7 sequence (Q96SW2 whole entry): as the sequence (Q96SW2 whole entry) above
T3 sequence (Q9UKS7 whole entry): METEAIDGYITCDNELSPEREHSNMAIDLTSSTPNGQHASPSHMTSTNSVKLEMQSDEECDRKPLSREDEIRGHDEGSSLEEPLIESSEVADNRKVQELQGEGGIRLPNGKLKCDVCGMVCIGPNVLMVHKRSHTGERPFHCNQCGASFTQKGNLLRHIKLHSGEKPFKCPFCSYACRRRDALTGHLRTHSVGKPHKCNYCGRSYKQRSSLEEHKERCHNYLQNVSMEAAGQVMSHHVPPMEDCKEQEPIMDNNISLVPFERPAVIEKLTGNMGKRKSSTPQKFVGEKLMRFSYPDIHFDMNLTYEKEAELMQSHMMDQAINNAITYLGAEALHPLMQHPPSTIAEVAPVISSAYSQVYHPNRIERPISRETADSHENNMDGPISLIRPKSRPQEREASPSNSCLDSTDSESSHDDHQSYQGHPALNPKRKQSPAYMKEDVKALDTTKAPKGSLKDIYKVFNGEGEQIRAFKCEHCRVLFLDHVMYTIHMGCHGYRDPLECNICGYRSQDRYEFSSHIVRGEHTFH
T3 sequence (Q96SW2 whole entry): as the sequence (Q96SW2 whole entry) above
T3 sequence (Q16531 whole entry partner): as the sequence (Q16531 whole entry partner) above
T4 sequence (Q9UKT9 whole entry): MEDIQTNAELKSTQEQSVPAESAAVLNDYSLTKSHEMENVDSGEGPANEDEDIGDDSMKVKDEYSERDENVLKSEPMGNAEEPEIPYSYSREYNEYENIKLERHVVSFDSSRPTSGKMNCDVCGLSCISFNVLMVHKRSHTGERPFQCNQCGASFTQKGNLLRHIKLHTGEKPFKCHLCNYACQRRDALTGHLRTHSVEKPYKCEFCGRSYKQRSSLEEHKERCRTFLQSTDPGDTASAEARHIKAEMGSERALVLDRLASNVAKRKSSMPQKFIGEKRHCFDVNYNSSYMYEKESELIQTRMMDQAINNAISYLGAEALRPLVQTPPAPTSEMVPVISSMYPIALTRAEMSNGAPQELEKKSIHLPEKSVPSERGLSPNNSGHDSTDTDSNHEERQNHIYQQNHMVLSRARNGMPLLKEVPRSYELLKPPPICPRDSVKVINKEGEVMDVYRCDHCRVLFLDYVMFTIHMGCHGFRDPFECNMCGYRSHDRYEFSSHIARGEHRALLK
T4 sequence (Q96SW2 whole entry): as the sequence (Q96SW2 whole entry) above
T4 sequence (Q16531 whole entry partner): as the sequence (Q16531 whole entry partner) above

| Structure (SMILES) | IC50 [1] | IC50 (MM.1S) | Weel substrate protein remaining % (WEE1) | IKZF 1 substrate protein remaining % (IKZF1) | IKZF2 substrate protein remaining % (IKZF2) | IKZF3 substrate protein remaining % (IKZF3) | CK1a substrate protein remaining % (CK1α) | GSPT1 substrate protein remaining % (GSPT1) |
| --- | --- | --- | --- | --- | --- | --- | --- | --- |
| O=C1CCC(N2Cc3cc(CN4CCC(N5CCOc6cc(F)ccc65)CC4)ccc3C2=O)C(=O)N1 (stereo not drawn) [GT-04859, 3-(5-((4-(7-fluoro-2,3-dihydro-4H-benzo[b][1,4]oxazin-4-yl)piperidin-1-yl)methyl)-1-oxoisoindolin-2-yl)piperidine-2,6-dione] | < 500 nM | 50 to 100 nM | B (80%< substrate protein remaining %≤ 100%) | A (0% ≤ substrate protein remaining % ≤ 80%) | A (0% ≤ substrate protein remaining % ≤ 80%) | A (0% ≤ substrate protein remaining % ≤ 80%) | B (80%< substrate protein remaining %≤ 100%) | A (0% ≤ substrate protein remaining % ≤ 80%) |
| Cc1nc(C2=CCN(Cc3ccc4c(c3)CN(C3CCC(=O)NC3=O)C4=O)CC2)c2c3c(sc2n1)CCCC3 (stereo not drawn) [GT-04863, 3-(5-((4-(2-methyl-5,6,7,8-tetrahydrobenzo[4,5]thieno[2,3-d]pyrimidin-4-yl)-3,6-dihydropyridin-1 (2H)-yl)methyl)-1-oxoisoindolin-2-yl)piperidine-2,6-dione] | < 500 nM | 10 to 50 nM | A (0% ≤ substrate protein remaining % ≤ 80%) | A (0% ≤ substrate protein remaining % ≤ 80%) | A (0% ≤ substrate protein remaining % ≤ 80%) | A (0% ≤ substrate protein remaining % ≤ 80%) | A (0% ≤ substrate protein remaining % ≤ 80%) | A (0% ≤ substrate protein remaining % ≤ 80%) |
| O=C1CCC(N2Cc3cc(CN4CCC(C5CCOc6cc(F)ccc65)CC4)ccc3C2=O)C(=O)N1 (stereo not drawn) [GT-04901, 3-(5-((4-(7-fluorochroman-4-yl)piperidin-1-yl)methyl)-1-oxoisoindolin-2-yl)piperidine-2,6-dione] | < 500 nM | 10 to 50 nM | B (80%< substrate protein remaining %≤ 100%) | A (0% ≤ substrate protein remaining % ≤ 80%) | A (0% ≤ substrate protein remaining % ≤ 80%) | A (0% ≤ substrate protein remaining % ≤ 80%) | B (80%< substrate protein remaining %≤ 100%) | B (80%< substrate protein remaining %≤ 100%) |
| O=C1CCC(N2Cc3cc(CN4CC5CCC4CN5c4cccc(Cl)c4Cl)ccc3C2=O)C(=O)N1 (stereo not drawn) [GT-04930, 3-(5-((5-(2,3-dichlorophenyl)-2,5-diazabicyclo[2.2.2]octan-2-yl)methyl)-1-oxoisoindolin-2-yl)piperidine-2,6-dione] | < 500 nM | 10 to 50 nM | A (0% ≤ substrate protein remaining % ≤ 80%) | A (0% ≤ substrate protein remaining % ≤ 80%) | A (0% ≤ substrate protein remaining % ≤ 80%) | A (0% ≤ substrate protein remaining % ≤ 80%) | B (80%< substrate protein remaining %≤ 100%) | A (0% ≤ substrate protein remaining % ≤ 80%) |

The next lines start with results.

| IC50 [1] | IC50 (MM.1S) | Structure (SMILES) | Weel substrate protein remaining % (WEE1) | IKZF 1 substrate protein remaining % (IKZF1) | IKZF2 substrate protein remaining % (IKZF2) | IKZF3 substrate protein remaining % (IKZF3) | CK1a substrate protein remaining % (CK1α) | GSPT1 substrate protein remaining % (GSPT1) |
| --- | --- | --- | --- | --- | --- | --- | --- | --- |
| 500 to 1000 nM | 10 to 50 nM | O=C1CCC(N2Cc3cc(CN4CCCN(c5cccc(Cl)c5Cl)CC4)ccc3C2=O)C(=O)N1 (stereo not drawn) [GT-04856, 3-(5-((4-(2,3-dichlorophenyl)-1,4-diazepan-1-yl)methyl)-1-oxoisoindolin-2-yl)piperidine-2,6-dione] | A (0% ≤ substrate protein remaining % ≤ 80%) | A (0% ≤ substrate protein remaining % ≤ 80%) | A (0% ≤ substrate protein remaining % ≤ 80%) | A (0% ≤ substrate protein remaining % ≤ 80%) | B (80%< substrate protein remaining %≤ 100%) | A (0% ≤ substrate protein remaining % ≤ 80%) |
| < 500 nM | 5 to 10 nM | O=C1CCC(N2Cc3cc(CN4C[C@@H]5C[C@H]4CN5c4cccc(Cl)c4Cl)ccc3C2=O)C(=O)N1 (stereo partly drawn) [GT-04898, 3-(5-(((1S,4S)-5-(2,3-dichlorophenyl)-2,5-diazabicyclo[2.2.1]heptan-2-yl)methyl)-1-oxoisoindolin-2-yl)piperidine-2,6-dione] | B (80%< substrate protein remaining %≤ 100%) | A (0% ≤ substrate protein remaining % ≤ 80%) | A (0% ≤ substrate protein remaining % ≤ 80%) | A (0% ≤ substrate protein remaining % ≤ 80%) | B (80%< substrate protein remaining %≤ 100%) | A (0% ≤ substrate protein remaining % ≤ 80%) |
| < 500 nM | 10 to 50 nM | Cc1nc(N2CCN(Cc3ccc4c(c3)CN(C3CCC(=O)NC3=O)C4=O)CC2)c2c3c(sc2n1)CCCC3 (stereo not drawn) [GT-04900, 3-(5-((4-(2-methyl-5,6,7,8-tetrahydrobenzo[4,5]thieno[2,3-d]pyrimidin-4-yl)piperazin-1-yl)methyl)-1-oxoisoindolin-2-yl)piperidine-2,6-dione] | B (80%< substrate protein remaining %≤ 100%) | A (0% ≤ substrate protein remaining % ≤ 80%) | A (0% ≤ substrate protein remaining % ≤ 80%) | A (0% ≤ substrate protein remaining % ≤ 80%) | A (0% ≤ substrate protein remaining % ≤ 80%) | B (80%< substrate protein remaining %≤ 100%) |
| < 500 nM | 10 to 50 nM | O=C1CCC(N2Cc3cc(CN4CCN(c5nc(N6CCOCC6)nc6ccsc56)CC4)ccc3C2=O)C(=O)N1 (stereo not drawn) [GT-04903, 3-(5-((4-(2-morpholinothieno[3,2-d]pyrimidin-4-yl)piperazin-1-yl)methyl)-1-oxoisoindolin-2-yl)piperidine-2,6-dione] | B (80%< substrate protein remaining %≤ 100%) | B (80%< substrate protein remaining %≤ 100%) | A (0% ≤ substrate protein remaining % ≤ 80%) | A (0% ≤ substrate protein remaining % ≤ 80%) | A (0% ≤ substrate protein remaining % ≤ 80%) | A (0% ≤ substrate protein remaining % ≤ 80%) |
| < 500 nM | 50 to 100 nM | Cc1nc(C2=CCN(Cc3ccc4c(c3)CN(C3CCC(=O)NC3=O)C4=O)CC2)c2c3c(sc2n1)CCC3 (stereo not drawn) [GT-05211, 3-(5-((4-(2-methyl-6,7-dihydro-5H-cyclopenta[4,5]thieno[2,3-d]pyrimidin-4-yl)-3,6-dihydropyridin-1(2H)-yl)methyl)-1-oxoisoindolin-2-yl)piperidine-2,6-dione] | A (0% ≤ substrate protein remaining % ≤ 80%) | A (0% ≤ substrate protein remaining % ≤ 80%) | A (0% ≤ substrate protein remaining % ≤ 80%) | A (0% ≤ substrate protein remaining % ≤ 80%) | A (0% ≤ substrate protein remaining % ≤ 80%) | A (0% ≤ substrate protein remaining % ≤ 80%) |
